For experiment [1], the target named is T1, HIV-1 protease (Q7S mutant form) (Human immunodeficiency virus type 1 group M subtype B, UniProt P04585, Q495S).
T1 construct: made in house
Nature of the experiment: HIV-1 Protease RET assay. Type of experiment: biochemical. The conditions noted are these: Ave. Ki (nM), RET assay, Q7S enzyme, Morrison tight binding fit. In a few lines:
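Ki values fitted with the Morrison tight-binding equation from steady-state RET cleavage (ex 340, em 490 nm) of 5 μM RE(EDANS)SQNYPIVQK(DABCYL)R. Buffer pH 4.8 acetate, 1M NaCl, 5 mM DTT, 1 mg/ml BSA, 10% DMSO; 2 nM Q7S mutant dimer, 37 °C, 12 min.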

Experiment [2] relates to HIV-1 (HIV-1 RF, HIV-1 NL4-3) in CEM-SS / MT-2 cells. Nature of the experiment: Cytopathic effect (CPE) inhibition assay (XTT/MTT dye reduction). Type of experiment: cell-based. In a few lines: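 Readout is XTT reduction (A450, 4 h) after six days of culturing virus-infected (moi 0.025–0.819) or mock-infected CEM-SS/MT-2 cells, 2×10^4 per well, with half-log compound series. Antiviral EC50 and cytotoxic CC50 are relative to uninfected compound-free cells. Therapeutic index is CC50 divided by EC50.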
A general note: Protection from cytopathic effect is a common read-out in antiviral testing.

Where [3] appears, read: Human immunodeficiency virus 1, NL43, read-out: Ave CPE EC50.
Where [4] appears, read: Human immunodeficiency virus 1, NL43, read-out: Ave CPE EC50 (mM).

Like-named read-outs stand apart in the source and are kept apart here.

As a reminder, the Ki is the dissociation constant of the complex between target and ligand, obtained from inhibition or displacement. The low end stands for a stronger hold on the target, the high end for a looser hold on the target. For orientation: EC50 means the concentration that produces a half-maximal response.

Compound `Cc1c(O)cccc1C(=O)N[C@@H](Cc1ccccc1)[C@H](O)C(=O)N1CSC(C)(C)[C@H]1C(=O)N[C@@H]1CCCc2sccc21` [Example A49, 3-[2-Hydroxy-3-(3-hydroxy-2-methyl-benzoylamino)-4-phenyl-butyryl]-5,5-dimethyl-thiazolidine-4-carboxylic acid (4,5,6,7-tetrahydro-benzo[b]thiophen-4-yl)-amide] displayed a Ki in experiment [1] of 0.49 nM. The EC50 in experiment [2] (setting [3]) was 161 nM.

`Cc1c(O)cccc1C(=O)N[C@@H](Cc1ccccc1)[C@H](O)C(=O)N1CSC(C)(C)[C@H]1C(=O)N[C@@H]1CCc2ncccc21` [Example A52, 3-[2-Hydroxy-3-(3-hydroxy-2-methyl-benzoylamine)-4-phenyl-butyryl]-5,5-dimethyl-thiazolidine-4-carboxylic acid (6,7-dihydro-5H-[1]pyrindin-5-yl)-amide] registered a Ki in experiment [1] of 0.51 nM. Besides, the EC50 in experiment [2] (setting [3]) worked out at 456 nM.

Regarding `Cc1c(O)cccc1C(=O)N[C@@H](Cc1ccccc1)[C@H](O)C(=O)N1CSC(C)(C)[C@H]1C(=O)NCc1oc2ccccc2c1C` [Example A54, (R)-3-[(2S,3S)-2-Hydroxy-3-(3-hydroxy-2-methyl-benzoylamino)-4-phenyl-butyryl]-5,5-dimethyl-thiazolidine-4-carboxylic acid (3-methyl-benzofuran-2-ylmethyl)-amide], the Ki in experiment [1] amounted to 4.5 nM. Moreover, the EC50 in experiment [2] (setting [3]) came to 1230 nM.

Consider `Cc1c(O)cccc1C(=O)N[C@@H](Cc1ccccc1)[C@H](O)C(=O)N1CSC(C)(C)[C@H]1C(=O)NN(C)c1ccccc1` [Example A57, N-{(1S,2S)-1-Benzyl-3-[(R)-5,5-dimethyl-4-(N′-methyl-N′-phenyl-hydrazinocarbonyl)-thiazolidin-3-yl]-2-hydroxy-3-oxo-propyl}-3-hydroxy-2-methyl-benzamide], for which, in experiment [1], the Ki came out at 5.6 nM. Also, the EC50 in experiment [2] (setting [3]) came to 1530 nM.

Regarding `Cc1c(O)cccc1C(=O)N[C@@H](Cc1ccccc1)[C@H](O)C(=O)N1CSC(C)(C)[C@H]1C(=O)NCc1ccc2c(c1)OC(F)(F)O2` [Example A59, (R)-3-((2S,3S)-2-Hydroxy-3-{[1-(3-hydroxy-2-methyl-phenyl)-methanoyl]-amino}-4-phenyl-butanoyl)-5,5-dimethyl-thiazolidine-4-carboxylic acid (2,2-difluoro-benzo[1,3]dioxol-5-ylmethyl)-amide], the inhibition constant (Ki) in experiment [1] stood at 0.19 nM. Also, the EC50 in experiment [2] (setting [4]) was 417 nM.

`Cc1c(O)cccc1C(=O)N[C@@H](Cc1ccccc1)[C@H](O)C(=O)N1CSC(C)(C)[C@H]1C(=O)NCc1cc2ccccc2[nH]1` [Example A61, (R)-3-[(2S,3S)-2-Hydroxy-3-(3-hydroxy-2-methyl-benzoylamino)-4-phenyl-butyryl]-5,5-dimethyl-thiazolidine-4-carboxylic acid (1H-indol-2-ylmethyl)-amide]: the Ki in experiment [1] was found to be 0.99 nM. Further, in experiment [2] (setting [3]), the EC50 was found to be 1060 nM.

For the compound `Cc1c(O)cccc1C(=O)N[C@@H](Cc1ccccc1)[C@H](O)C(=O)N1CSC(C)(C)[C@H]1C(=O)NCc1cc2ccccc2o1` [Example A62, (R)-3-[(2S,3S)-2-Hydroxy-3-(3-hydroxy-2-methyl-benzoylamino)-4-phenyl-butyryl]-5,5-dimethyl-thiazolidine-4-carboxylic acid (benzofuran-2-ylmethyl)-amide], the Ki in experiment [1] turned out to be 9.6 nM. Further, the EC50 in experiment [2] (setting [3]) is 2260 nM.

The compound `Cc1c(O)cccc1C(=O)N[C@@H](Cc1ccccc1)[C@H](O)C(=O)N1CSC(C)(C)[C@H]1C(=O)NCc1cc2ccccc2n1C` [Example A63, (R)-3-[(2S,3S)-2-Hydroxy-3-(3-hydroxy-2-methyl-benzoylamino)-4-phenyl-butyryl]-5,5-dimethyl-thiazolidine-4-carboxylic acid (1-methyl-1H-indol-2-ylmethyl)-amide] registered a Ki in experiment [1] of 4.5 nM. Further, the half-maximal effective concentration (EC50) in experiment [2] (setting [3]) came to 1190 nM.

For `Cc1ccccc1CNC(=O)[C@H]1N(C(=O)[C@@H](O)[C@H](Cc2ccccc2)NC(=O)c2cccc3c2CCCN3)CSC1(C)C` [Example B2, 1,2,3,4-Tetrahydro-quinoline-5-carboxylic acid {(1S,2S)-1-benzyl-3-[(R)-5,5-dimethyl-4-(2-methyl-benzylcarbamoyl)-thiazolidin-3-yl]-2-hydroxy-3-oxo-propyl}-amide], in experiment [1], the Ki amounted to 0.35 nM. Also, the EC50 in experiment [2] (setting [3]) turned out to be 87 nM.

For the compound `Cc1ccccc1CNC(=O)[C@H]1N(C(=O)[C@@H](O)[C@H](Cc2ccccc2)NC(=O)N2CC[C@@H](O)C2)CSC1(C)C` [Example B3, 3-(2-hydroxy-3-{[1-(3-hydroxy-pyrrolidin-yl)-methanoyl]-amino}-4-phenyl-butanoyl)-5,5-dimethyl-thiazolidine-4-carboxylic acid-2-methyl-benzylamide], in experiment [1], the affinity corresponds to a Ki of 2.5 nM. In addition, in experiment [2] (setting [4]), the EC50 came to 905 nM.

Take `Cc1ccccc1CNC(=O)[C@H]1N(C(=O)[C@@H](O)[C@H](Cc2ccccc2)NC(=O)CSc2nc[nH]n2)CSC1(C)C` [Example B4, 3-{2-Hydroxy-4-phenyl-3-[2-(2H-[1,2,4t]triazol-3-ylsufanyl)-ethanoylamino]-butanoyl}5,5-dimethyl-thiazolidine-4-carboxylic acid-2-methyl-benzylamide]: the affinity in experiment [1] corresponds to a Ki of 3 nM. For the same compound, the EC50 in experiment [2] (setting [3]) was 707 nM.

`Cc1ccccc1CNC(=O)[C@H]1N(C(=O)[C@@H](O)[C@H](Cc2ccccc2)NC(=O)O[C@@H]2CCS[C@@H]2C(C)C)CSC1(C)C` [Example B5, {(1S,2S)-1-Benzyl-3-[(R)-5,5-dimethyl-4-(2-methyl-benzylcarbamoyl)-thiazolidin-3-yl]-2-hydroxy-3-oxo-propyl}-carbamic acid (R)-2-isopropyl-tetrahydro-thiophen-3-yl ester] came in with a Ki in experiment [1] of 1.2 nM. In addition, in experiment [2] (setting [3]), the EC50 was 314 nM.

In experiment [1], `Cc1ccccc1CNC(=O)[C@H]1N(C(=O)[C@@H](O)[C@H](Cc2ccccc2)NC(=O)c2cccc3[nH]ccc23)CSC1(C)C` [Example B8, 1H-Indole-4-carboxylic acid {(1S,2S)-1-benzyl-3-[(R)-5,5-dimethyl-4-(2-methyl-benzylcarbamoyl)-thiazolidin-3-yl]-2-hydroxy-3-oxo-propyl}-amide] returned a Ki of 0.63 nM. In experiment [2] (setting [3]), the EC50 is 474 nM.

In turn, `Cc1ccccc1CNC(=O)[C@H]1N(C(=O)[C@@H](O)[C@H](Cc2ccccc2)NC(=O)c2cccc3[nH]ncc23)CSC1(C)C` [Example B9, 1H -Indazle-4-carboxylic acid {1-benzyl-3-[5,5-dimethyl-4-(2-methyl-benzylcarbamoyl)-thiazolidin-3-yl]-2-hydroxy-3-oxo-propyl}-amide] returned a Ki in experiment [1] of 1.1 nM. The EC50 in experiment [2] (setting [3]) worked out at 452 nM.

Turning to `C#CCOC(=O)N[C@@H](Cc1ccccc1)[C@H](O)C(=O)N1CSC(C)(C)[C@H]1C(=O)NCc1ccccc1C` [Example B10, {(1S,2S)-1-Benzyl-3-[(R)-5,5-dimethyl-4-(2-methyl-benzylcarbamoyl)-thiazolidin-3-yl]-2-hydroxy-3-oxo-propyl}-carbamic acid prop-2-ynyl ester], the Ki in experiment [1] was 0.57 nM. Besides, the EC50 in experiment [2] (setting [3]) was 386 nM.

Compound `CCC(C)C(=O)N[C@@H](Cc1ccccc1)[C@H](O)C(=O)N1CSC(C)(C)[C@H]1C(=O)NCc1ccccc1C` (stereo partly drawn) [Example B12, (R)-3-[(2S,3S)-2-Hydroxy-3-(2-methyl-butyrylamino)-4-phenyl-butyryl]-5,5-dimethyl-thiazolidine-4-carboxylic acid 2-methyl-benzylamide] registered a Ki in experiment [1] of 9.9 nM. The EC50 in experiment [2] (setting [3]) is over 1000 nM.

Regarding `C=CCNC(=O)N[C@@H](Cc1ccccc1)[C@H](O)C(=O)N1CSC(C)(C)[C@H]1C(=O)NCc1ccccc1C` [Example B13, (R)-3-[(2S,3S)-3-(3-Allyl-ureido)-2-hydroxy-4-phenyl-butyryl]-5,5-dimethyl-thiazolidine-4-carboxylic acid 2-methyl-benzylamide], in experiment [1], the Ki turned out to be 2 nM. In addition, in experiment [2] (setting [3]), the EC50 worked out at 1460 nM.

`C=CCCOC(=O)N[C@@H](Cc1ccccc1)[C@H](O)C(=O)N1CSC(C)(C)[C@H]1C(=O)NCc1ccccc1C` [Example B14, {(1S,2S)-1-Benzyl-3-[(R)-5,5-dimethyl-4-(2-methyl-benzylcarbamoyl)-thiazolidin-3-yl]-2-hydroxy-3-oxo-propyl}-carbamic acid but-3-enyl ester] showed a Ki in experiment [1] of 2.7 nM. Also, the EC50 in experiment [2] (setting [3]) amounted to 1660 nM.

In experiment [1], `Cc1ccccc1CNC(=O)[C@H]1N(C(=O)[C@@H](O)[C@H](Cc2ccccc2)NC(=O)C2CC2)CSC1(C)C` [Example B15, 3-[(S)-3-(Cyclopropanecarbonyl-amino)-2-hydroxy-4-phenyl-butyryl]-5,5-dimethyl-thiazolidine-4-carboxylic acid 2-methyl-benzylamide] came in with a Ki of 1.3 nM. In experiment [2] (setting [3]), the EC50 was 2300 nM.

`Cc1ccccc1CNC(=O)[C@H]1N(C(=O)[C@@H](O)[C@H](Cc2ccccc2)NC(=O)OC(C)C)CSC1(C)C` [Example B16, {(S)-1-Benzyl-3-[5,5-dimethyl-4-(2-methyl-benzylcarbamoyl)-thiazolidin-3-yl]-2-hydroxy-3-oxo-propyl}-carbamic acid isopropyl ester] yielded a Ki in experiment [1] of 2.6 nM. In addition, in experiment [2] (setting [3]), the EC50 is 1570 nM.

`C#CCCC(=O)N[C@@H](Cc1ccccc1)[C@H](O)C(=O)N1CSC(C)(C)[C@H]1C(=O)NCc1ccccc1C` [Example B18, (R)-3-((2S,3S)-2-Hydroxy-3-pent-4-ynoylamino-4-phenyl-butyryl)-5,5-dimethyl-thiazolidine-4-carboxylic acid 2-methyl-benzylamide] registered a Ki in experiment [1] of 0.56 nM. Moreover, the EC50 in experiment [2] (setting [3]) was found to be 1250 nM.

Source of the values: patent US7094909B2, “HIV protease inhibitors, compositions containing the same, their pharmaceutical uses and materials for their synthesis” (priority 2001, dated 2006).
